From patent US20130236610A1, “COMPOSITIONS AND METHODS FOR INHIBITING POTATO PATHOGENS” (UNIVERSITY OF IDAHO, priority 2010, published 2013)

Columns and labels:
Type in all cases: cell-based
Colletotrichum coccodes [1] = experiment: Pure volatile in 1L jars above plates containing the pathogens, colony diameter (Example 2); settings: 2.5 μL/L volatile, 1L jar, 23 degree C
Procedure: (§1) […] were chosen as prototype volatiles to investigate the use of plant volatiles for the control of potato blemish pathogens. Three main potato blemish pathogens were used in the study: Erwinia carotovora, Colletotrichum coccodes and Helminthosporium solani.
(§2) 1L jars were used. Pure volatile (2.5-10 μt/L) was inserted into the jars onto the side of the jar above 6cm plates containing the pathogens. Controls and treatments were incubated at 23 degree C. until the control filled the plate. Diameter of the colony (mm) from control and treatments were evaluated daily using calipers.

Erwinia carotovora [2] = experiment: as above; settings: 2.5 μL/L volatile, 1L jar, 23 degree C
Procedure: as §1, §2

Helminthosporium solani [3] = experiment: as above; settings: 2.5 μL/L volatile, 1L jar, 23 degree C
Procedure: as §1, §2

Erwinia carotovora [4] = experiment: Volatile exposure of pathogen cultures on PDA in sealed mason jars, radial growth (Example 1); settings: pure volatile, 7 days at 23° C
Colletotrichum coccodes [5] = experiment: as above; settings: pure volatile, 7 days at 23° C
Procedure: (§3) In this study, acetaldehyde and 2E-hexenal were chosen as prototype volatiles in order to investigate the use of plant volatiles for the control of potato blemish pathogens in fresh-pack potato packaging. The two main potato blemish disease pathogens, Colletotrichum coccodes (black dot) and Helminthosporium solani (silver scurf) were used in the study. Cultures of the two pathogens, grown on PDA, were exposed to the pure volatiles in sealed mason jars for 7 days at 23° C. Radial fungal growth and the concentration of the volatile were measured daily and the concentration required to inhibit fungal growth was determined. […] 2E-hexenal could be used to control these and other pathogens and extend the storability and shelf-life of potatoes.

Helminthosporium solani [6] = experiment: as above; settings: pure volatile, 7 days at 23° C
Procedure: as §3

Measured: inhibition of pathogen growth

CCC/C=C/C=O [2E-Hexanal]
nearly complete inhibition: Colletotrichum coccodes [1] | Erwinia carotovora [2] | Helminthosporium solani [3]

CCC/C=C/C=O [2E-hexenal]
nearly complete inhibition: Erwinia carotovora [4] | Colletotrichum coccodes [5] | Helminthosporium solani [6]
